Literature values in patent US20160120822A1, “COMPOSITION CONTAINING ROTIGOTINE AND USE THEREOF AND TRANSDERMAL PATCH CONTAINING THE COMPOSITION” (Jiangsu Kangbeide Pharmaceuticals Co. Ltd., priority 2007, published 2016).

Settings: oral formulations

CCCN(CCc1cccs1)[C@H]1CCc2c(O)cccc2C1 [Rotigotine]
clearance after oral intake: overly high | duration of action after oral intake: relatively short
